Target: P. falciparum apicoplast DNA polymerase (Pf-apPOL) (Plasmodium falciparum, UniProt Q8ILY1)
Test: Fluorescence-based high-throughput DNA polymerase assay (molecular beacon), primary screen and dose-response
Format: biochemical
Details: for DNA Pol: 90 min, 10 µM; for % inhibition apPOL 180' 2.5 / % inhibition apPOL 180' 5 / % inhibition apPOL 180' 10 / % inhibition apPOL 180' 20 / % inhibition apPOL 180' 40 / % inhibition apPOL 180' 80: read at 180'
Outline: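 Single-point screening used 10 µM compound with 20 nM polymerase, 20 nM hairpin substrate and 6 µM dNTPs for 90 min at 25 °C. Confirmatory titrations (2.5–80 µM) followed fluorescence at three times, and IC50 was derived from a fit including a cooperativity term n.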

Chain of P. falciparum apicoplast DNA polymerase (Pf-apPOL) (Q8ILY1 entry or part of it): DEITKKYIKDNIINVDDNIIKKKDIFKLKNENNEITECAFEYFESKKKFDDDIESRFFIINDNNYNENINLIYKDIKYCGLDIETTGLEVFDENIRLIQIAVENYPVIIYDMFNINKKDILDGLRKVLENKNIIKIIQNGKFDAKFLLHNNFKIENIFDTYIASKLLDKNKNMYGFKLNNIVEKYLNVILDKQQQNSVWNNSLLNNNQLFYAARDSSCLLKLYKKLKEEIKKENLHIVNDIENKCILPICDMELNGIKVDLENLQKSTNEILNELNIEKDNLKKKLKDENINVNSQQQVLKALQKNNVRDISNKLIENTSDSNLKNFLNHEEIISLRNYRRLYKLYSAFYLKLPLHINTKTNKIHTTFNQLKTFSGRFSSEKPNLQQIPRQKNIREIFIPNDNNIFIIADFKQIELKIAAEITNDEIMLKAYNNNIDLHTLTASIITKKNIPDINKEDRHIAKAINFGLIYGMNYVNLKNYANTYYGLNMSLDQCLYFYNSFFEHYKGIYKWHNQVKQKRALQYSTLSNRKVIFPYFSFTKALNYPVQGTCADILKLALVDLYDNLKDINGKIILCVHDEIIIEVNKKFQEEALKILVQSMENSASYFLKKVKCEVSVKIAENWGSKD

`O=c1[nH]c2ccc([N+](=O)[O-])cc2c(-c2ccccc2)c1Sc1nc2ccccc2o1` [KU0067471] was tested, and the “DNA Pol” value ('DNA Pol' of the 186 hits list (primary screen value)) was 28, the “DNA Pol” value (DNA Pol (primary screen value)) was 28 and the “% inhibition Apo pol 10'” value (DRC-1, concentration 2.5) was 11.1433%. The “% inhibition Apo pol 10'” value (DRC-1, concentration 5) was 11.3784%, the “% inhibition Apo pol 10'” value (DRC-1, concentration 10) was 23.2925% and the “% inhibition Apo pol 10'” value (DRC-1, concentration 20) was 44.3997%. For the same molecule, the “% inhibition Apo pol 10'” value (DRC-1, concentration 40) was 71.988%, the “% inhibition Apo pol 10'” value (DRC-1, concentration 80) was 85.2168% and the “% inhibition Apol 90'” value (DRC-1, concentration 2.5) was 8.412%. For the same molecule, the “% inhibition Apol 90'” value (DRC-1, concentration 5) was 5.979%, the “% inhibition Apol 90'” value (DRC-1, concentration 10) was 13.3902% and the “% inhibition Apol 90'” value (DRC-1, concentration 20) was 30.6503%. For the same molecule, the “% inhibition Apol 90'” value (DRC-1, concentration 40) was 58.6016%, the “% inhibition Apol 90'” value (DRC-1, concentration 80) was 77.507% and the “% inhibition apPOL 180'” value (DRC-1, concentration 2.5) was 7.341%. The “% inhibition apPOL 180'” value (DRC-1, concentration 5) was 3.743%, the “% inhibition apPOL 180'” value (DRC-1, concentration 10) was 8.363% and the “% inhibition apPOL 180'” value (DRC-1, concentration 20) was 19.4729%. The “% inhibition apPOL 180'” value (DRC-1, concentration 40) was 44.0566%, the “% inhibition apPOL 180'” value (DRC-1, concentration 80) was 66.9195% and the “% inhibition Apo pol 5'” value (DRC-2, concentration 2.5) was 9%. For the same molecule, the “% inhibition Apo pol 5'” value (DRC-2, concentration 5) was 12%, the “% inhibition Apo pol 5'” value (DRC-2, concentration 10) was 26% and the “% inhibition Apo pol 5'” value (DRC-2, concentration 20) was 42%. The “% inhibition Apo pol 5'” value (DRC-2, concentration 40) was 59%, the “% inhibition Apo pol 5'” value (DRC-2, concentration 80) was 60% and the “% inhibition Apol 40'” value (DRC-2, concentration 2.5) was 7%. For the same molecule, the “% inhibition Apol 40'” value (DRC-2, concentration 5) was 9%, the “% inhibition Apol 40'” value (DRC-2, concentration 10) was 24% and the “% inhibition Apol 40'” value (DRC-2, concentration 20) was 43%. For the same molecule, the “% inhibition Apol 40'” value (DRC-2, concentration 40) was 65%, the “% inhibition Apol 40'” value (DRC-2, concentration 80) was 72% and the “% inhibition ApPOL 90'” value (DRC-2, concentration 2.5) was 5%. The “% inhibition ApPOL 90'” value (DRC-2, concentration 5) was 7%, the “% inhibition ApPOL 90'” value (DRC-2, concentration 10) was 20% and the “% inhibition ApPOL 90'” value (DRC-2, concentration 20) was 40%. For the same molecule, the “% inhibition ApPOL 90'” value (DRC-2, concentration 40) was 65%, the “% inhibition ApPOL 90'” value (DRC-2, concentration 80) was 73% and the “% inhibition apPOL 180'” value (DRC-2, concentration 2.5) was -0.297%. The “% inhibition apPOL 180'” value (DRC-2, concentration 5) was -0.499%, the “% inhibition apPOL 180'” value (DRC-2, concentration 10) was 10% and the “% inhibition apPOL 180'” value (DRC-2, concentration 20) was 26%. The “% inhibition apPOL 180'” value (DRC-2, concentration 40) was 57% and the “% inhibition apPOL 180'” value (DRC-2, concentration 80) was 72%.
With `N#Cc1c(O)nc(N2CCCCC2)nc1-c1ccc2c(c1)OCO2` [KU0083146] the “DNA Pol” value (186 hits, DNA Pol (screen value), unit not given) was 49, the “DNA Pol” value ('DNA Pol' (screen value), unit not given) was 49 and the “% inhibition Apo pol 10' 2.5” value (DRC-1, read at 10', concentration 2.5) was 13.1271%. The “% inhibition Apo pol 10' 5” value (DRC-1, read at 10', concentration 5) was 26.6749%, the “% inhibition Apo pol 10' 10” value (DRC-1, read at 10', concentration 10) was 53.7038% and the “% inhibition Apo pol 10' 20” value (DRC-1, read at 10', concentration 20) was 55.5357%. The “% inhibition Apo pol 10' 40” value (DRC-1, read at 10', concentration 40) was 66.277%, the “% inhibition Apo pol 10' 80” value (DRC-1, read at 10', concentration 80) was 78.8965% and the “% inhibition Apol 90' 2.5” value (DRC-1, read at 90', concentration 2.5) was 5.9065%. For the same molecule, the “% inhibition Apol 90' 5” value (DRC-1, read at 90', concentration 5) was 16.8272%, the “% inhibition Apol 90' 10” value (DRC-1, read at 90', concentration 10) was 42.1383% and the “% inhibition Apol 90' 20” value (DRC-1, read at 90', concentration 20) was 45.0693%. For the same molecule, the “% inhibition Apol 90' 40” value (DRC-1, read at 90', concentration 40) was 57.8585%, the “% inhibition Apol 90' 80” value (DRC-1, read at 90', concentration 80) was 71.163% and the “% inhibition apPOL 180' 2.5” value (DRC-1, concentration 2.5) was -1.148%. The “% inhibition apPOL 180' 5” value (DRC-1, concentration 5) was 6.188%, the “% inhibition apPOL 180' 10” value (DRC-1, concentration 10) was 30.2008% and the “% inhibition apPOL 180' 20” value (DRC-1, concentration 20) was 34.0367%. The “% inhibition apPOL 180' 40” value (DRC-1, concentration 40) was 46.9072%, the “% inhibition apPOL 180' 80” value (DRC-1, concentration 80) was 62.3261% and the “% inhibition Apo pol 5'” value (DRC-2, concentration 2.5) was 13%. For the same molecule, the “% inhibition Apo pol 5'” value (DRC-2, concentration 10) was 33%, the “% inhibition Apo pol 5'” value (DRC-2, concentration 40) was 53% and the “% inhibition Apol 40'” value (DRC-2, concentration 2.5) was 13%. For the same molecule, the “% inhibition Apol 40'” value (DRC-2, concentration 10) was 33%, the “% inhibition apPOL 180'” value (DRC-2, concentration 40) was 53% and the “% inhibition Apo pol 5' 2.5” value (DRC-2, read at 5', concentration 2.5) was 13%. For the same molecule, the “% inhibition Apo pol 5' 5” value (DRC-2, read at 5', concentration 5) was 27%, the “% inhibition Apo pol 5' 10” value (DRC-2, read at 5', concentration 10) was 33% and the “% inhibition Apo pol 5' 20” value (DRC-2, read at 5', concentration 20) was 44%. The “% inhibition Apo pol 5' 40” value (DRC-2, read at 5', concentration 40) was 53%, the “% inhibition Apo pol 5' 80” value (DRC-2, read at 5', concentration 80) was 57% and the “% inhibition Apol 40' 2.5” value (DRC-2, read at 40', concentration 2.5) was 13%. For the same molecule, the “% inhibition Apol 40' 5” value (DRC-2, read at 40', concentration 5) was 28%, the “% inhibition Apol 40' 10” value (DRC-2, read at 40', concentration 10) was 33% and the “% inhibition Apol 40' 20” value (DRC-2, read at 40', concentration 20) was 49%. For the same molecule, the “% inhibition Apol 40' 40” value (DRC-2, read at 40', concentration 40) was 60%, the “% inhibition Apol 40' 80” value (DRC-2, read at 40', concentration 80) was 65% and the “% inhibition ApPOL 90' 2.5” value (DRC-2, read at 90', concentration 2.5) was 11%. The “% inhibition ApPOL 90' 5” value (DRC-2, read at 90', concentration 5) was 26%, the “% inhibition ApPOL 90' 10” value (DRC-2, read at 90', concentration 10) was 31% and the “% inhibition ApPOL 90' 20” value (DRC-2, read at 90', concentration 20) was 47%. For the same molecule, the “% inhibition ApPOL 90' 40” value (DRC-2, read at 90', concentration 40) was 59%, the “% inhibition ApPOL 90' 80” value (DRC-2, read at 90', concentration 80) was 66% and the “% inhibition apPOL 180' 2.5” value (DRC-2, concentration 2.5) was 5.4%. The “% inhibition apPOL 180' 5” value (DRC-2, concentration 5) was 17%, the “% inhibition apPOL 180' 10” value (DRC-2, concentration 10) was 23% and the “% inhibition apPOL 180' 20” value (DRC-2, concentration 20) was 40%. For the same molecule, the “% inhibition apPOL 180' 40” value (DRC-2, concentration 40) was 53% and the “% inhibition apPOL 180' 80” value (DRC-2, concentration 80) was 61%.
